Measurements from article PMC7230911, “Meroterpenoids from the Brown Alga Cystoseira usneoides as Potential Anti-Inflammatory and Lung Anticancer Agents” (Marine Drugs, 2020).

Assays:
[1] = test system: human fetal lung fibroblastic MRC-5 cells; test: Cytotoxicity against normal lung cells MRC-5 (MTT assay); format: cell-based; conditions: Homo sapiens, MRC5, 72 h of treatment, mean ± SE
Protocol: (§1) The effect of the AMTs 1–8 on cell viability was investigated in the human lung cancer cell line A549. […] It has been reported that compounds with SI value higher or equal to 2.0 are potentially selective. […] It is worth noting that after treatment with 50 μg/mL of these two AMTs, the cell viability was lower than 15% for cancer cells and higher than 55% for normal cells.
(§2) Figure 4 Effects of different concentrations of meroterpenoids 1–8 on the viability of human lung cancer cell line A549 and the human fetal lung fibroblastic MRC-5 cells, using MTT assay after 72 h of treatment. Data are mean ±SE of three independent experiments. * p < 0.05, ** p < 0.01 and […] between the two cell lines.
(§3) Cell proliferation was evaluated by a modified MTT assay, which measures the mitochondrial dehydrogenase activity. A total of 5 × 10^3 cells/well (MRC-5 cells) and 3 × 10^3 cells/well (A549 cells) were cultured in a 96-well plate for 24 h. Then, treatments were added to the cell culture. After 72 h of incubation, the medium was removed and 125 µL of MTT (1 mg/mL in medium) was added to each well and incubated for 4 h. Next, 80 µL of 20% sodium dodecyl sulphate (SDS) was added and incubated for 5 h at 37 °C. The optical density of each well was measured at 540 nm (Synergy HT multiwell plate spectrophotometer reader, BioTek Instruments Inc., Winooski, VT, USA) to quantify cell viability. Cell viability (%) was calculated according to the following formula: % viability = (absorbance of compounds treated cells/absorbance of control cells) × 100. The degree of selectivity of the compounds was expressed by its SI value. Each SI value was calculated using the formula: SI = IC50 normal cell/IC50 cancer cell.

A549 cells = test: Cell cycle analysis of A549 cells by flow cytometry; format: cell-based, human; conditions: IC50 concentration, 24 h; for cells at S phase: control 4.99%; for cells at G2/M phase: control 14.06%
Protocol: We next investigated whether the treatment with AMTs 1–8 caused any cell cycle-related event, which inhibit the viability of A549 cell line. Thus, the cells were treated for 24 h with the AMTs at concentrations of IC50 (Table 1), or with colchicine (at 0.2 μg/mL) as the positive control, and then subjected to flow cytometry analysis to evaluate the distribution of cells in the different phases of the cell cycle (Figure 5A).
Figure 5 Effects of meroterpenoids 1–8 on cell cycle distribution of A549 cells. Cells were incubated with IC50 doses of the compounds for 24 h. (A) Cells were harvested to measure the cell cycle distribution by flow cytometry. (B) Quantitative analysis of cell cycle distribution after treatment. Data represent mean ±SE from three independent experiments. * p < 0.05, ** p < 0.01, and *** p < 0.001 compared with the untreated group (control).
For cell cycle analysis by flow cytometry, A549 cells were seeded at 1 × 10^6 cells/well in 6-well plates and incubated for 24 h followed by treatment with the AMTs, at concentration of IC50, and further incubation for 24 h. Colchicine (final concentration of 0.2 μg/mL) was used as positive control. Cells were harvested after trypsinization and washed once with PBS. Then, the cells were centrifuged at 1500 rpm for 5 min (25 °C), the pellet was fixed with 1 mL of ice-cold 70% ethanol, and the samples were stored at −4 °C overnight. Then the cells were washed with PBS and incubated in the darkness with PBS containing 5 mg/mL of RNase A for 48 h at 4 °C. Subsequently, 50 µL of propidium iodide (0.1 mg/mL) was added and the cells were incubated for 1 h at 4 °C. The relative DNA content per cell was analyzed using a Beckman Coulter Cytomics FC 500 MPL (Beckman Coulter Inc, San Diego, CA, USA). The data acquisition was performed with the DML program. The analysis of the acquired data was performed with the CXP cytometer.

colitis = test system: colitis; set-up: method as in PMID 27527191; conditions: down-regulating TNF-α, IL-1ß, IL-10, suppressing COX-2 and iNOS expression in mouse colon tissue; cited from earlier work
[2] = Cytotoxicity against normal lung cells MRC-5 (MTT assay); format: cell-based, human; conditions: human, MRC-5 fetal lung fibroblast cells, 50 μg/mL, 72 h, read-out: cell viability of normal cells
Protocol: as §1, §2, §3

Row | Structure (SMILES) | IC50 [1] | cells at S phase (A549 cells) | cells at G2/M phase (A549 cells) | in vivo effect in colitis (in words) (colitis) | viability at 72 h, 50 µg/mL [2] | cells at G0/G1 phase (A549 cells; control 71.40%)
1 | COc1c(C)cc(O)cc1C/C=C(\C)CC(=O)/C=C(/C)CCCC(C)(O)C(=O)/C=C/C(C)(C)O (centres unmarked) [Compound 1, usneoidone Z] | 10.6 ± 0.5 µg/mL | 17.75% | 31.15% | – | – | –
2 | COc1c(C)cc(O)cc1C/C=C(\C)CC(=O)/C=C(\C)CCCC(C)(O)C(=O)/C=C/C(C)(C)O (centres unmarked) [Compound 2, 11-hydroxy-1’-O-methylamentadione] | 8.65 ± 0.18 µg/mL | 17.90% | 31.62% | intestinal anti-inflammatory activity in colitis | – | –
3 | COc1c(C)cc(O)cc1C/C=C(\C)CC(=O)/C=C(\C)CCCC(C)=O [Compound 3, cystomexicone B] | 51.9 ± 2.76 µg/mL | – | – | – | > 55% | –
4 | COc1c(C)cc(O)cc1C/C=C(\C)CC(=O)/C=C(/C)CCCC(C)=O [Compound 4, cystomexicone A] | 58.4 ± 3.3 µg/mL | – | – | – | > 55% | –
5 | COc1c(C)cc(O)cc1C/C=C(\C)CC(=O)/C=C(/C)CCCC(C)C(=O)/C=C/C(C)(C)O (stereo not drawn) [Compound 5, 6-cis-amentadione-1′-methyl ether] | 8.39 ± 0.14 µg/mL | – | – | – | – | –
6 | COc1c(C)cc(O)cc1C/C=C(\C)CC(=O)/C=C(\C)CCCC(C)C(=O)/C=C/C(C)(C)O (centres unmarked) [Compound 6, amentadione-1′-methyl ether] | 8.87 ± 0.05 µg/mL | – | – | – | – | –
7 | COc1c(C)cc(O)cc1/C=C/C(C)(O)CC(=O)/C=C(/C)CCCC(C)C(=O)/C=C/C(C)(C)O (centres unmarked) [Compound 7, cystodione A] | 14.5 ± 1.14 µg/mL | 13.69% | 40.19% | – | – | 49.31%
8 | COc1c(C)cc(O)cc1/C=C/C(C)(O)CC(=O)/C=C(\C)CCCC(C)C(=O)/C=C/C(C)(C)O (centres unmarked) [Compound 8, cystodione B] | 17.83 ± 0.09 µg/mL | 16.73% | 32.50% | – | – | –
